According to patent publication US20050171028A1, “Thioketals and thioethers for inhibiting the expression of VCAM-1” (Atherogenics Pharmaceuticals, Inc., priority 2000, published 2005):

Legend:
Format in all cases: cell-based
[1] = system: Human aortic endothelial cells (HAEC); experiment: LD50 (toxicity to cells; visual signs of toxicity scored in the VCAM-1 assay)
Protocol: (§1) Human aortic endothelial cells (HAEC) were purchased from Clonetics and maintained in EGM media (Clonetics) supplemented with 5% fetal bovine serum (FBS). In a typical experiment, cells were seeded in 96-well plates. The next day cells were stimulated with TNF-alpha (1 ng/ml) purchased from Boehringer Mannheim in the presence or absence of compounds dissolved in dimethylsulphoxide (DMSO). To establish a dose curve for each compound, four concentrations in 2 fold increments were used. Cells were exposed to TNF-α and compounds for approximately 16 hours. The next day, cells were examined under microscope to score for visual signs of toxicity.
(§2) The degree of inhibition of various compounds, including the compounds prepared in the foregoing examples, using the assays described in Examples 6-9, are provided in Table IX. Results are expressed in micromolar quantities.

VCAM-1 = VCAM-1 assay: enzyme immunoassay of TNF-alpha induced VCAM-1 expression in endothelial cells; conditions: Homo sapiens, Endothelial cell; HAEC stimulated with TNF-alpha (1 ng/ml), about 16 hours with compound; read-out: VCAM-1 IC50 or % inhibition at
Protocol: The VCAM-1 assay is an enzyme immunoassay to detect tumor necrosis factor alpha (TNF-alpha) induced Vascular Cell Adhesion Molecule (VCAM-1) expression in endothelial cells.
as §1
Media was discarded and the cells were washed once with Hanks buffered saline solution (HBSS)/phosphate buffered solution (PBS) 91:1). Primary mouse monoclonal antibody against VCAM-1 purchased from Southern Biotechnology Associates (0.25 μg/ml in HBSS/PBS+5% FBS) was added and incubated at 37° C. for 30 minutes. Cells were washed with HBSS/PBS three times, and secondary antibody horse radish peroxidase (HRP)-conjugated goat anti-mouse IgG purchased from Southern Biotechnology Associates (1:500 in HBSS/PBS+5% FBS) was added and incubated at 37° C. for 30 minutes. Cells were washed with HBSS/PBS four times and peroxidase substrate 3.3′,5,5′-tetramethyl-benzidine (TMB) was added and incubated in the dark at room temperature until there was adequate blue color development. The length of incubation time was typically 5-15 minutes. 2 N sulfuric acid was added to stop the color development and the data was collected by reading the absorbance at O.D. 450 nm. The result was expressed as the percentage of control sample (cells stimulated by TNF without any compound).
as §2

ApoB/HepG2 = experiment: Lipid screen: ApoB ELISA on media of treated HEPG2 cells; conditions: Homo sapiens; HEPG2 cells treated 24 hours; ApoB accumulation in media as percentage of control; read-out: ApoB/Hep G2 IC50 or % inhibition at
Protocol: HEPG2 cell was started in 10 ml of MEM, 10% FBS, 1 mM Sodium Pyruvate. The cells were incubated in a tissue culture incubator. The cells were split into 4×96-wells plate in MEM, 10% FBS, 1 mM Sodium Pyruvate and allowed to grow to about 50% confluency and then removed.
The cells were treated with the desired concentration of compounds in 100 μl DMEM, 1% RSA for 24 hours. The compounds are dissolved in DMSO.
On the same day, 4×96-wells NuncImmunoSorb plate is coated with 100 μl of mouse anti-human ApoB monoclonal 1D1 (1:1000 dilution in 1×PBS, pH 7.4). The coating is allowed to stand overnight.
The coated plate is washed 3 times with 1×PBS, pH 7.4, −0.05% Tween 20. 100 μl of the standards is added to the selected wells. ApoB standards are prepared at 6.25, 3.12, 1.56, 0.78, 0.39 ng, and each concentration is done in triplicates.
90 μl of 1×PBS, pH 7.4, −0.05% Tween 20 is added to each well corresponding to the sample. 10 μl of media is transferred from the treated HEPG2 plates to the ApoB ELISA plate. The plate is incubated at room temperature for 2 hours, rocking gently.
Wash the coated plate 3× with 1×PBS, pH 7.4, −0.05% Tween 20. Add 100 μl of sheep anti-human ApoB polyclonal from Boehringer Mannheim. (1:2000 dilution in 1×PBS, pH 7.4, −0.05% Tween 20). Incubate at room temperature for 1 hour, rocking gently. Wash the coated plate 3× with 1×PBS, pH 7.4, −0.05% Tween 20. Add 100 μl of rabbit anti-sheep IgG (1:2000 dilution in 1×PBS, pH 7.4, −0.05% Tween 20). Incubate at room temperature for 1 hour, rocking gently. Wash the coated plate 3× with 1×PBS, pH 7.4, −0.05% Tween 20. Add 100 μl of substrate (10 ml of distilled water, 100 μl of TMB (10 mg/ml), and 1 μl of hydrogen peroxide). Allow color to emerge and stop reaction with 25 ul of 8N sulfuric acid. Wells are read with MicroPlate Reader @ […]. Graph accumulation of ApoB in media as a percentage of control for each sample and their concentration. A determination of IC50 is obtained from the graph.

| SMILES | LD50 at [1] [µM] | IC50 (VCAM-1) [µM] | IC50 (ApoB/HepG2) [µM] |
| --- | --- | --- | --- |
| CN(C)C(=O)c1ccc(CSc2cc(C(C)(C)C)c(O)c(C(C)(C)C)c2)cc1 | 50.0 | 12.5 | 85 |
| CC(C)(Sc1cc(C(C)(C)C)c(O)c(C(C)(C)C)c1)Sc1cc(C(C)(C)C)c(OCC(O)CS(=O)(=O)O)c(C(C)(C)C)c1 (centres unmarked) | 50.0 | 10 | – |
| CC(C)(Sc1cc(C(C)(C)C)c(O)c(C(C)(C)C)c1)Sc1cc(C(C)(C)C)c(OCC(O)COC(=O)C(O)C(O)C(O)C(O)CO)c(C(C)(C)C)c1 (centres unmarked) | 50.0 | 7 | 30 |
| CCN(CC)C(=O)c1ccc(CSc2cc(C(C)(C)C)c(O)c(C(C)(C)C)c2)cc1 | – | 12.5 | 40 |
| CC(C)(Sc1cc(C(C)(C)C)c(O)c(C(C)(C)C)c1)Sc1cc(C(C)(C)C)c(OCC2OC(O)[C@@H](O)[C@H]2O)c(C(C)(C)C)c1 (some centres unmarked) | – | 8 | – |
| CC(C)(Sc1cc(C(C)(C)C)c(O)c(C(C)(C)C)c1)Sc1cc(C(C)(C)C)c(OC[C@@H](O)[C@@H](O)[C@@H](O)CO)c(C(C)(C)C)c1 | 25.0 | 12.5 | 6 |
